Laboratory results taken from article PMC6150365, “Simultaneous Determination of Seven Components in Rat Plasma by the UPLC-MS/MS Method and Application of Pharmacokinetic Studies to SimiaoYong’an Decoction” (Molecules : A Journal of Synthetic Chemistry and Natural …, 2017).

Experiment: Pharmacokinetic study in rats after oral administration of SYD extract and its single and combined TCM extracts (UPLC-MS/MS of plasma)
Settings: male, Sprague-Dawley, rat, plasma, po, n = 6; for AUC(0-t) / AUC(0-inf) / Cmax / MRT last / MRT inf / Tmax: rat plasma; for MRT last: MRT(0–t); for MRT inf: MRT(0–∞); for half-life: t1/2, rat plasma
[1] = 1.29 g/kg, oral AS extract 1.29 g/kg
[2] = 2.14 g·kg^−1 (extract), oral LJ + GU extract
[3] = 2.15 g/kg, oral LJ extract 2.15 g/kg
[4] = 2.43 g/kg, oral AS + GU extract 2.43 g/kg
[5] = 3.29 g·kg^−1 (extract), oral LJ + AS extract
[6] = 3.29 g·kg^−1 extract, oral LJ + AS extract
[7] = 4.5 g·kg^−1 (extract), oral LJ + SN extract
[8] = 4.5 g·kg^−1 extract, oral LJ + SN extract
[9] = 4.73 g/kg, oral LJ + SN + GU extract 4.73 g/kg
[10] = 5.43 g/kg, oral LJ + SN + AS extract 5.43 g/kg
[11] = 8.25 g/kg, oral SYD extract 8.25 g/kg

Q: What does the source list for `O=C(/C=C/c1ccc(O)c(O)c1)O[C@@H]1C[C@](O)(C(=O)O)C[C@@H](O)[C@H]1O` [Chlorogenic acid, chlorogenic acid]?
A: AUC(0-t) [1]: 1360 ± 120 ng·h/mL; AUC(0-inf) [1]: 2130 ± 670 ng·h/mL; Cmax [1]: 390 ± 110 ng/mL; MRT last [1]: 1.56 ± 0.67 h; MRT inf [1]: 4.28 ± 2.23 h; Tmax [1]: 0.89 ± 0.33 h; half-life [1]: 212 ± 58.8 min; AUC(0-inf) [2]: 2930 ± 1000 ng·h/mL; Cmax [2]: 1070 ± 190 ng/mL; MRT last [2]: 3.85 ± 0.88 h; MRT inf [2]: 65 ± 64.6 h; Tmax [2]: 1.18 ± 0.78 h; half-life [2]: 489 ± 149 min; AUC(0-t) (2.14 g·kg^−1 extract, oral LJ + GU extract): 1780 ± 290 ng·h/mL; AUC(0-t) [3]: 3940 ± 2120 ng·h/mL; AUC(0-inf) [3]: 5040 ± 2980 ng·h/mL; Cmax [3]: 2410 ± 830 ng/mL; MRT last [3]: 3.12 ± 0.75 h; MRT inf [3]: 24.7 ± 8.81 h; Tmax [3]: 1.11 ± 0.74 h; half-life [3]: 563 ± 172 min; AUC(0-t) [4]: 1150 ± 340 ng·h/mL; AUC(0-inf) [4]: 1980 ± 450 ng·h/mL; Cmax [4]: 290 ± 210 ng/mL; MRT last [4]: 1.78 ± 0.39 h; MRT inf [4]: 3.36 ± 2 h; Tmax [4]: 0.55 ± 0.48 h; half-life [4]: 167 ± 31.8 min; Cmax [5]: 1670 ± 480 ng/mL; MRT last [5]: 3.17 ± 0.75 h; MRT inf [5]: 37.6 ± 36.1 h; Tmax [5]: 1.36 ± 0.69 h; half-life [5]: 428 ± 95.4 min; AUC(0-t) [6]: 2820 ± 750 ng·h/mL; AUC(0-inf) [6]: 3770 ± 1220 ng·h/mL; MRT last [7]: 3.48 ± 0.86 h; MRT inf [7]: 46.8 ± 43.4 h; Tmax [7]: 1.36 ± 1.03 h; half-life [7]: 469 ± 156 min; AUC(0-t) [8]: 2800 ± 1160 ng·h/mL; AUC(0-inf) [8]: 4250 ± 2310 ng·h/mL; Cmax [8]: 1740 ± 750 ng/mL; AUC(0-t) [9]: 2190 ± 480 ng·h/mL; AUC(0-inf) [9]: 3410 ± 640 ng·h/mL; Cmax [9]: 1280 ± 510 ng/mL; MRT last [9]: 3.44 ± 0.29 h; MRT inf [9]: 69.3 ± 73.6 h; half-life [9]: 500 ± 64.2 min; AUC(0-t) [10]: 2550 ± 640 ng·h/mL; AUC(0-inf) [10]: 3690 ± 490 ng·h/mL; Cmax [10]: 1380 ± 370 ng/mL; MRT last [10]: 3.19 ± 0.32 h; MRT inf [10]: 59.5 ± 63.2 h; half-life [10]: 404 ± 102 min; AUC(0-t) [11]: 2540 ± 280 ng·h/mL; AUC(0-inf) [11]: 3650 ± 820 ng·h/mL; Cmax [11]: 1220 ± 80 ng/mL; MRT last [11]: 3.28 ± 0.5 h; MRT inf [11]: 52.6 ± 53.8 h; half-life [11]: 485 ± 100 min; half-life ([…], oral SN + AS + GU extract […]): 477 ± 148 min
